Experimental data reported in ChEMBL document CHEMBL1201862, “PubChem BioAssay data set” (2004).
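All cell lines were grown in 96-well plates and treated with compound for 48 hours. GI50: concentration for 50% inhibition of growth.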 Calls of active or inactive are those of the source. Rule as the data show it: active = GI50 up to about 1.1 µM and inactive = higher.

Assays:
Test in all cases: NCI-60 cell line screen, 48 h
[1] = test system: RXF 393
[2] = test system: UACC-62
[3] = test system: OVCAR-3
[4] = test system: MOLT-4
[5] = test system: SNB-75
[6] = test system: NCI-H460
[7] = test system: CCRF-CEM
[8] = test system: SK-MEL-28
[9] = test system: HOP-92
[10] = test system: PC-3
[11] = test system: HCT-15
[12] = test system: OVCAR-5
[13] = test system: DU-145
[14] = test system: MCF7
[15] = test system: SN12C
[16] = test system: SNB-19
[17] = test system: MDA-MB-231
[18] = test system: KM12

| SMILES | GI50 [1] | GI50 [2] | GI50 [3] | GI50 [4] | GI50 [5] | GI50 [6] | GI50 [7] | GI50 [8] | GI50 [9] | GI50 [10] | GI50 [11] | GI50 [12] | GI50 [13] | GI50 [14] | GI50 [15] | GI50 [16] | GI50 [17] | GI50 [18] |
| --- | --- | --- | --- | --- | --- | --- | --- | --- | --- | --- | --- | --- | --- | --- | --- | --- | --- | --- |
| COC(=O)C(=O)C(C(=O)C(=O)Nc1ccc([N+](=O)[O-])cc1[N+](=O)[O-])c1nc2ccc(Cl)cc2nc1O (stereo not given) | 65.3 µM (inactive) | > 100 µM (inactive) | > 100 µM (inactive) | > 100 µM (inactive) | 16.5 µM (inactive) | > 100 µM (inactive) | > 10 µM (inactive) | > 100 µM (inactive) | > 100 µM (inactive) | > 100 µM (inactive) | > 100 µM | > 100 µM (inactive) | > 100 µM (inactive) | > 100 µM (inactive) | > 100 µM (inactive) | > 100 µM (inactive) | 50.2 µM (inactive) | > 100 µM (inactive) |
| Cc1cc([C@H](C#N)c2nc3ccccc3s2)nc(Cl)n1 | 7.4 µM (inactive) | 3.65 µM (inactive) | 4.84 µM (inactive) | 5.5 µM (inactive) | 2.21 µM (inactive) | 3.45 µM (inactive) | 3.82 µM (inactive) | 6.67 µM (inactive) | 2.32 µM (inactive) | 3.54 µM (inactive) | 3.66 µM | 16.3 µM (inactive) | 23.7 µM (inactive) | 4.41 µM (inactive) | 3.42 µM (inactive) | 6.7 µM (inactive) | 3 µM (inactive) | 2.78 µM (inactive) |
| O=c1c(Cl)nsnc1Cl | 12.1 µM (inactive) | 11.1 µM (inactive) | 5.69 µM (inactive) | 1.9 µM (inactive) | 22.6 µM (inactive) | 29.3 µM (inactive) | 0.984 µM (active) | 18.3 µM (inactive) | 0.665 µM (active) | 16.2 µM (inactive) | 17.5 µM | 20.1 µM (inactive) | 17.3 µM (inactive) | 6.22 µM (inactive) | 20.2 µM (inactive) | 23.4 µM (inactive) | 19.3 µM (inactive) | > 38.7 µM (inactive) |
| O=S(=O)(c1ccccc1)[C@H]1[C@@H]2O[C@@H]2C[C@@H]1O | > 100 µM (inactive) | > 100 µM (inactive) | > 100 µM (inactive) | > 100 µM (inactive) | 47.4 µM (inactive) | > 100 µM (inactive) | > 100 µM (inactive) | > 100 µM (inactive) | > 100 µM (inactive) | > 100 µM (inactive) | > 100 µM | > 100 µM (inactive) | > 100 µM (inactive) | > 100 µM (inactive) | > 100 µM (inactive) | > 100 µM (inactive) | > 100 µM (inactive) | > 100 µM (inactive) |
| O=C1C(=C2SC(c3ccccc3)(c3ccccc3)c3ccccc32)C(=O)c2ccccc21 | > 100 µM (inactive) | > 100 µM (inactive) | > 100 µM (inactive) | > 100 µM (inactive) | > 100 µM (inactive) | > 100 µM (inactive) | > 100 µM (inactive) | > 100 µM (inactive) | > 100 µM (inactive) | 82.4 µM (inactive) | > 100 µM | > 100 µM (inactive) | > 100 µM (inactive) | > 100 µM (inactive) | > 100 µM (inactive) | > 100 µM (inactive) | > 100 µM (inactive) | > 100 µM (inactive) |
| CC(=O)OCC1OC(n2c(C)c(/N=N/c3ccccc3)c(C)c(C#N)c2=S)C(OC(C)=O)C(OC(C)=O)C1OC(C)=O (stereo not given) | 14.4 µM (inactive) | 14.8 µM (inactive) | > 100 µM (inactive) | > 100 µM (inactive) | 1.85 µM (inactive) | 39.8 µM (inactive) | > 100 µM (inactive) | > 100 µM (inactive) | 8.99 µM (inactive) | > 100 µM (inactive) | – | 86.9 µM (inactive) | 83.4 µM (inactive) | > 100 µM (inactive) | 81.5 µM (inactive) | 24.2 µM (inactive) | 20.6 µM (inactive) | > 100 µM (inactive) |
| CC(=O)OCC(OC(C)=O)C1C[C@H]2O[C@@H]3[C@H](C[C@H]2O1)O[C@@]1(C[C@@H]3C)C[C@H](C)[C@@H]2O[C@]3(C[C@@H]2O1)C[C@H]1O[C@H]2[C@H](C)[C@H]4OC(=O)CC5CC[C@H]6OC7[C@H]8O[C@]9(CC[C@H]%10CC(O)(CO)[C@H](CC[C@H]%11C[C@@H](C)C(O)(CO)C(C[C@@H]4O[C@H]2C[C@H]1O3)O%11)O%10)CC8O[C@@H]7[C@@H](O9)[C@H]6O5 (stereo not given in full) | 0.00253 µM (active) | 0.00305 µM (active) | 0.00655 µM (active) | 0.0064 µM (active) | 0.00308 µM (active) | 0.00371 µM (active) | 0.00944 µM (active) | 0.0303 µM (active) | 0.0504 µM (active) | 0.00614 µM (active) | 0.00486 µM | > 0.27 µM (active) | 0.00386 µM (active) | 0.00281 µM (active) | 0.0227 µM (active) | 0.0194 µM (active) | 0.0705 µM (active) | 0.00415 µM (active) |
